This note sets out measurements from patent publication US10464906B2, “Crystalline forms of a histone deacetylase inhibitor” (Acetylon Pharmaceuticals, Inc., priority 2015, dated 2019).

Structures are written as SMILES.

What all share (assay type): physicochemical
Data set [1] is described as follows: Dynamic vapor sorption (DVS) with post-DVS XRPD. Particulars: for Post DVS XRPD (crystalline form after DVS): XRPD of the post-DVS sample. How it is done: Samples were analyzed using an Aquadyne DVS-2 gravimetric water sorption analyzer. The relative humidity was adjusted between 2-95% and the weight of the sample was continuously monitored and recorded with respect to the relative humidity and time.
The material was subjected under Dynamic Vapor Sorption (DVS, FIG. 6).

A short description of data set [2]: Stability of crystalline forms under dry (vacuum, 45° C.) and humid (RH >95%) conditions, XRPD. The following applies: for Form change after exposing the dried sample to high humidity conditions (XRPD): after drying at 45° C. under vacuum, then high humidity (RH >95%); for XRPD pattern after drying at 45° C. (under vacuum): dried under vacuum at 45° C. Here is the method: For dry conditions, the sample was dried under vacuum at 45° C. followed by XRPD analysis. Later the sample was subjected to high humidity conditions (RH >95%) followed by XRPD analysis.
The MeOH and DCM solvates of Compound (I) were dried on XRPD plates under vacuum at 45° C. and were analyzed by XRPD the following day.
Pattern E was dried at 45° C. under vacuum overnight and analyzed by XRPD. The following day, it was subjected to high humidity conditions (>95%) and later analyzed by XRPD the next day. […] FIG. 26 illustrates the XRPD comparison of dried and humid samples with Compound (I), Form I, Pattern A.

A short description of data set [3]: Form change on heating or on storage at room temperature, XRPD.
The mark [4] stands for this setting: exposed to high humidity conditions.

Regarding `O=C(CCCCCCNC(=O)c1cnc(N(c2ccccc2)c2ccccc2Cl)nc1)NO` [Form V, 2-((2-chlorophenyl)(phenyl)amino)-N-(7-(hydroxyamino)-7-oxoheptyl)pyrimidine-5-carboxamide], the “Post DVS XRPD (crystalline form after DVS)” value (“Post DVS XRPD” below) in data set [1] is “Pattern F, Form VI”; in data set [1] (listed as Pattern E) it was “Pattern F”. In addition, in data set [1] (setting [4]), the “Moisture uptake (DVS)” value is given as less than 0.15%. In addition, the “Form change after exposing the dried sample to high humidity conditions (XRPD)” value in data set [2] is on record as “no further form change”. The “XRPD pattern after drying at 45° C. (under vacuum)” value (shortened to “XRPD pattern after drying”) in data set [2] is listed as “Form VI, Pattern F”; in data set [2] (listed as Pattern E), “Pattern F (Form VI)”.

Take `O=C(CCCCCCNC(=O)c1cnc(N(c2ccccc2)c2ccccc2Cl)nc1)NO` [Form VII, 2-((2-chlorophenyl)(phenyl)amino)-N-(7-(hydroxyamino)-7-oxoheptyl)pyrimidine-5-carboxamide]: the “Post DVS XRPD” value is reported as “Pattern H,” in data set [1] and “Pattern H” in data set [1] (listed as Pattern G). Besides, in data set [2], the “Form change after exposing the dried sample to high humidity conditions (XRPD)” value was “no further form change”. The entries for the “XRPD pattern after drying” value in data set [2] and in data set [2] (listed as Pattern G) were “Form VIII (Pattern H)” and “Pattern H”, respectively.

On to `O=C(CCCCCCNC(=O)c1cnc(N(c2ccccc2)c2ccccc2Cl)nc1)NO` [Form II, 2-((2-chlorophenyl)(phenyl)amino)-N-(7-(hydroxyamino)-7-oxoheptyl)pyrimidine-5-carboxamide], for which the results for the “Post DVS XRPD” value in data set [1] and in data set [1] (listed as Pattern B) were “Pattern D,” and “Pattern D”, respectively. In addition, the “Weight change (DVS)” value in data set [1] (setting [4]) is on record as less than 1%. In data set [3] (130° C. for 30 minutes), the “XRPD pattern after heating” value is “Pattern A”. Moreover, the “XRPD pattern after drying” value is “Pattern D,” in data set [2] and “Pattern D” in data set [2] (listed as Pattern B).

For the molecule `O=C(CCCCCCNC(=O)c1cnc(N(c2ccccc2)c2ccccc2Cl)nc1)NO` [Form III, 2-((2-chlorophenyl)(phenyl)amino)-N-(7-(hydroxyamino)-7-oxoheptyl)pyrimidine-5-carboxamide], the figures for the “Post DVS XRPD” value in data set [1] and in data set [1] (listed as Pattern C) were “Pattern D,” and “Pattern D”, respectively. Further, in data set [1] (setting [4]), the “Weight change (DVS)” value was “around 1.5%”. Further, the “XRPD pattern after drying” value in data set [2] was “Pattern D,”; in data set [2] (listed as Pattern C), “Pattern D”.

Turning to `O=C(CCCCCCNC(=O)c1cnc(N(c2ccccc2)c2ccccc2Cl)nc1)NO` [Pattern J], the “XRPD pattern after storage” value in data set [3] (room temperature, reanalyzed after three days) was “Pattern A”. In addition, the “XRPD pattern after drying” value in data set [2] is reported as “Pattern A”.

With `O=C(CCCCCCNC(=O)c1cnc(N(c2ccccc2)c2ccccc2Cl)nc1)NO` [Form IX, 2-((2-chlorophenyl)(phenyl)amino)-N-(7-(hydroxyamino)-7-oxoheptyl)pyrimidine-5-carboxamide], the “Post DVS XRPD” value is reported as “Pattern D,” in data set [1] and “Pattern D” in data set [1] (listed as Pattern I). The “XRPD pattern after drying” value in data set [2] was “Pattern D (Form IV)”; in data set [2] (listed as Pattern I), “Pattern D”.
